Source: patent publication US20250092065A1, “2-(INDAZOL-5-YL)-6-(PIPERIDIN-4-YL)-1,7-NAPHTHYRIDINE DERIVATIVES AND RELATED COMPOUNDS AS MODULATORS FOR SPLICING NUCLEIC ACIDS AND FOR THE TREATMENT OF PROLIFERATIVE DISEASES” (REMIX THERAPEUTICS INC., priority 2022, published 2025)
Like-named read-outs stand apart in the source and are kept apart here.

Columns and labels:
K562 cells = experiment: Cell Titer Glo 2.0 cell viability (toxicity) assay, K562; conditions: 500 cells/well, 72 hours
Procedure: Compounds described herein were screened for toxicity in K562 (human chronic myelogenous leukemia) and SH-SY5Y (human neuroblastoma) cells using a Cell Titer Glo 2.0 assay.
Cells were plated at 500 cells/well (K562 cells) in 45 μL of IMDM supplemented with 10% FBS in a 384-well opaque plate. Wells containing only medium were used as a blank control. Test compounds (e.g., compounds of Formula (I) or (II)) were first serially diluted in DMSO then diluted 1:100 with EIDM+10% FBS. The final concentration of DMSO was 0.1% in each well. The cells were incubated for 72 hours at 37° C. and 5% CO2 before assaying with Cell Titer Glo 2.0 reagent.

SMN2 mRNA = experiment: RT-qPCR splicing assay, SMN2 mRNA; format: cell-based, human; conditions: Homo sapiens, canonical junction qPCR panel, Table 4; read-out: SMN2 IC50 (decrease in CJ mRNA levels)
Method in brief: (§1)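 Splice switching quantified in compound-treated A673/K562 cells after 24 h exposure (top dose 10 uM, 3-fold steps, ≤0.25% DMSO), using CJ and AJ qPCR assays run at least in duplicate. RQ derived by 2^(−ΔΔCt), then percentage response.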

MYB mRNA = experiment: RT-qPCR splicing assay, MYB mRNA canonical (CJ) and alternative (AJ) junction; format: cell-based, human; conditions: Homo sapiens; for AC50: MYB alternative junction mRNA, read-out: MYB AJ (increase in AJ mRNA, AC50)
Method in brief: as §1

[1] = MYB canonical junction mRNA, RT-qPCR, read-out: MYB CJ (decrease in CJ mRNA levels, IC50)
[2] = canonical junction qPCR panel, Table 4, read-out: MYB IC50 (decrease in CJ mRNA levels)

Structure (SMILES)	IC50 (SMN2 mRNA) [µM]	IC50 (MYB mRNA; [1]) [µM]	IC50 (MYB mRNA; [2]) [µM]	Effect of Exemplary Compounds on Cell Viability, K562 (K562 cells)	AC50 (MYB mRNA; RT-qPCR) [µM]
Cn1cc2cc(-c3ccc4nc([C@@H]5CCNC6(CC6)C5)ccc4n3)c(O)cc2n1 (single isomer, unassigned) [Compound 495]	< 0.1	< 0.1	< 0.1	B (B represents 100-1000 nM)	< 0.1
Cn1cc2cc(-c3ccc4nc([C@H]5CCNC6(CC6)C5)ccc4n3)c(O)cc2n1 (single isomer, unassigned) [Compound 496]	< 0.1	0.1 to 1	0.1 to 1	B (B represents 100-1000 nM)	< 0.1
Cc1nc2cc(O)c(-c3ccc4nc([C@H]5CCNC6(CC6)C5)ccc4n3)cc2o1 (single isomer, unassigned) [Compound 497]	< 0.1	< 0.1	< 0.1	A (A represents <100 nM)	< 0.1
Cc1nc2cc(O)c(-c3ccc4nc([C@@H]5CCNC6(CC6)C5)ccc4n3)cc2o1 (single isomer, unassigned) [Compound 498]	< 0.1	0.1 to 1	0.1 to 1	B (B represents 100-1000 nM)	< 0.1
Cc1cn2cc(-c3ccc4cc(N5C[C@H](C)N[C@@H](C)C5)cc(F)c4n3)cc(F)c2n1 (single isomer, unassigned) [Compound 705, 2,2,2-trifluoroacetate]	–	< 0.1	< 0.1	A (A represents <100 nM)	0.1 to 1
CNC(=O)c1nc(-c2cc3cn(C)nc3c(F)c2O)nc2ccc(N3CCNCC3)cc12 [Compound 506, 2-(7-fluoro-6-hydroxy-2-methylindazol-5-yl)-N-methyl-6-(piperazin-1-yl)quinazoline-4-carboxamide]	< 0.1	< 0.1	< 0.1	–	< 0.1
Cc1c(O)c(-c2nc(N(C)C)c3cc(N4CCNCC4)ccc3n2)cc2cn(C)nc12 [Compound 509, 5-[4-(dimethylamino)-6-(piperazin-1-yl)quinazolin-2-yl]-2,7-dimethylindazol-6-ol]	0.1 to 1	> 10	> 10	–	> 10

The next lines start with results.

IC50 (SMN2 mRNA) [µM]	IC50 (MYB mRNA; [1]) [µM]	IC50 (MYB mRNA; [2]) [µM]	Structure (SMILES)	Effect of Exemplary Compounds on Cell Viability, K562 (K562 cells)	AC50 (MYB mRNA; RT-qPCR) [µM]
< 0.1	0.1 to 1	0.1 to 1	CN[C@@H]1CCN(c2ccc3nc(-c4cn5cc(C)nc5c(C)c4O)ncc3n2)C1 (single isomer, unassigned) [Compound 504]	B (B represents 100-1000 nM)	0.1 to 1
< 0.1	< 0.1	< 0.1	CNC(=O)c1nc(-c2cc3cn(C)nc3c(C)c2O)nc2ccc(N3CCN[C@@H](C)C3)cc12 (single isomer, unassigned) [Compound 512]	A (A represents <100 nM)	< 0.1
< 0.1	< 0.1	< 0.1	CN[C@@H]1CCN(c2ccc3nc(-c4cc5cn(C)nc5c(C)c4O)ncc3c2)C1 (single isomer, unassigned) [Compound 521]	A (A represents <100 nM)	< 0.1
< 0.1	< 0.1	< 0.1	CNC(=O)c1nc(-c2cc3cn(C)nc3c(C)c2O)nc2ccc(N3C[C@@H](C)N[C@H](C)C3)cc12 (single isomer, unassigned) [Compound 653]	A (A represents <100 nM)	< 0.1
0.1 to 1	1 to 10	1 to 10	CNc1nc(-c2cc3cn(C)nc3c(C)c2O)nc2ccc(N3CCNCC3)cc12 [Compound 508, 2,7-dimethyl-5-[4-(methylamino)-6-(piperazin-1-yl)quinazolin-2-yl]indazol-6-ol]	–	1 to 10
